Data taken from patent US12139474B2, “LPA receptor antagonists and uses thereof” (Gilead Sciences, Inc., priority 2020, dated 2024).

target: T1, human LPAR1 (Homo sapiens, UniProt Q92633); test: LPAR1 intracellular calcium mobilization assay (antagonist mode); type: cell-based; conditions: CHO-K1 EDG2 cells expressing human LPAR1; 60 min pre-incubation with compound, then LPA 18:2 at EC80 (100 nM); FLIPR calcium signal
T1 construct: host or cells: CHO-K1
Method: In vitro LPAR1 activity was measured in an intracellular calcium mobilization assay.
CHO-K1 EDG2 cells (DiscoverX cat #93-0644C2) expressing human LPAR1 (NM_001401.3) were seeded in a total volume of 25 μL of Dulbecco's Modification of Eagle's Medium (DMEM) with 10% Fetal Bovine Serum, 1× PenStrepGlutamine, 300 ug/ml Hygromycin, and 800 ug/ml G418 into 384-well tissue culture plate (Grenier #781091) at 15,000 cells/well and incubated at 37° C. overnight. Prior to testing, 25 μL Calcium Loading Dye Component A (FLIPR Calcium 6 Assay Kit Molecular Device #R8190) and 2.5 mM Probenecid (Invitrogen #P36400, prepared fresh) in Hank's Balanced Salt Solution (Corning #21-023-CV), 20 mM HEPES (Corning #25-060-CI), 0.1% Bovine Serum Albumin (Sigma-Aldrich #A7906-500G) was add to the cells for 60 minutes at 37° C.
Agonist dose curves of LPA 18:2 (Avanti Polar Lipids cat #857138, 0.5 nM to 10 μM) were recorded to determine the LPA 18:2 EC80 for subsequent antagonist assays. For agonist dose curves, cells were removed from the incubator 2 hours after dye loading and transferred to the FLIPR Tetra instrument (Molecular Devices, San Jose, CA). Calcium mobilization was monitored for 5 min and 10 μL 6× LPA in HBSS/20 mM Hepes/0.1% bovine serum albumin (BSA) was added to the cells 5 seconds into the assay.
To determine the LPAR1 antagonist activity of test compounds, cells were pre-incubated with test compound at a dose range of 0.5 nM to 10 μM, followed by LPA at EC80 concentration (100 nM). After dye loading, cells were removed from the incubator and 0.3 μL of 200× antagonist was added. Cells were incubated for 60 minutes at 37° C. Antagonist activity was measured on a FLIPR Tetra. Calcium mobilization was monitored for 3.5 minutes and 10 μL 6× EC80 LPA in HBSS, 20 mM HEPES, and 0.1% BSA was added to the cells 5 seconds into the assay. Signal amplitude (Maximum minus minimum) values were plotted against log10 of antagonist concentration using Dose Response Tool (Gilead Sciences Inc.) to determine EC50.
To assess the antagonistic potential of exemplified compounds EC50 values were determined for Compounds 1 to 32 in the LPAR1 calcium mobilization assay. The compound numbers correspond to the compound numbers in Examples 1 to 33.

T1 sequence (Q92633 whole entry): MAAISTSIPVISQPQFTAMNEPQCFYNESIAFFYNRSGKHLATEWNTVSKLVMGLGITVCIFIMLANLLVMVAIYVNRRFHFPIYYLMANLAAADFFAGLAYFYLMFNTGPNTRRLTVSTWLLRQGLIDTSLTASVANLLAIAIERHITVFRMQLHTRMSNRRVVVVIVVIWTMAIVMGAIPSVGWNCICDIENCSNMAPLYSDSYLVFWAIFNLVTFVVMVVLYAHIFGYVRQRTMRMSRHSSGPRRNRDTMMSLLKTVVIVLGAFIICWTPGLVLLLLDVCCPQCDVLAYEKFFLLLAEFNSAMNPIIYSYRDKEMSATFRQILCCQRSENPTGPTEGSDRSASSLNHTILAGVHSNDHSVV

Compared with `C[C@@H](OC(=O)Nc1c(-c2ccc3c(n2)OCC(=O)N3)nnn1C)c1cc(Cl)cnc1F` [Compound 4, (R)-1-(5-chloro-2-fluoropyridin-3-yl)-ethyl(1-methyl-4-(2-oxo-2,3-dihydro-1H-pyrido[2,3-b][1,4]-oxazin-6-yl)-1H-1,2,3-triazol-5-yl)-carbamate], `C[C@@H](OC(=O)Nc1c(-c2ccc3c(n2)OCC(=O)N3)nnn1C)c1cc(F)cnc1F` [Compound 3, (R)-1-(2,5-difluoropyridin-3-yl)ethyl(1-methyl-4-(2-oxo-2,3-dihydro-1H-pyrido-[2,3-b][1,4]oxazin-6-yl)-1H-1,2,3-triazol-5-yl)carbamate] is 1.8-fold lower in EC50: 118 nM for the first, 66 nM for the second.

Compared with `C[C@@H](OC(=O)Nc1c(-c2ccc3c(c2)OCC(=O)N3)nnn1C)c1ccccc1Cl` [Compound 13, (R)-1-(2-chlorophenyl)ethyl(1-methyl-4-(3-oxo-3,4-dihydro-2H-benzo[b][1,4]-oxazin-7-yl)-1H-1,2,3-triazol-5-yl)-carbamate], `C[C@@H](OC(=O)Nc1c(-c2ccc3c(c2)OCC(=O)N3)nnn1C)c1cccnc1Cl` [Compound 18, (R)-1-(2-chloropyridin-3-yl)ethyl (1-methyl-4-(3-oxo-3,4-dihydro-2H-benzo[b][1,4]-oxazin-7-yl)-1H-1,2,3-triazol-5-yl)-carbamate] is 7-fold higher in EC50: 38 nM for the first, 265 nM for the second.

Going from `C[C@@H](OC(=O)Nc1c(-c2cc(F)c3c(c2)CCC(=O)N3)nnn1C)c1cccnc1Cl` [Compound 29, (R)-1-(2-chloropyridin-3-yl)ethyl (4-(8-fluoro-2-oxo-1,2,3,4-tetrahydroquinolin-6-yl)-1-methyl-1H-1,2,3-triazol-5-yl)carbamate] to `C[C@@H](OC(=O)Nc1c(-c2cc3c(cc2F)NC(=O)CC3)nnn1C)c1cccnc1Cl` [Compound 6, [(1R)-1-(2-chloro-3-pyridyl)ethyl] N-[5-(7-fluoro-2-oxo-3,4-dihydro-1H-quinolin-6-yl)-3-methyl-triazol-4-yl]carbamate], the EC50 rises from 5 nM to 115 nM (23-fold).

First: C[C@@H](OC(=O)Nc1c(-c2ccc3c(c2)CCC(=O)N3)nnn1C)c1ccccc1Cl [Compound 11, (R)-1-(2-chlorophenyl)ethyl (1-methyl-4-(2-oxo-1,2,3,4-tetrahydroquinolin-6-yl)-1H-1,2,3-triazol-5-yl)carbamate]
Second: C[C@@H](OC(=O)Nc1c(-c2ccc3c(c2)COC(=O)N3)nnn1C)c1ccccc1Cl [Compound 12, (R)-1-(2-chlorophenyl)ethyl(1-methyl-4-(2-oxo-1,4-dihydro-2H-benzo[d][1,3]-oxazin-6-yl)-1H-1,2,3-triazol-5-yl)-carbamate]
The EC50 of the first is 4.7-fold lower: 46 nM for the first, 218 nM for the second. The first is the more potent here.

First: C[C@@H](OC(=O)Nc1c(-c2ccc3c(c2)N(C)CC(=O)N3)nnn1C)c1ccccc1Cl [Compound 19, (R)-1-(2-chlorophenyl)ethyl (1-methyl-4-(4-methyl-2-oxo-1,2,3,4-tetrahydroquinoxalin-6-yl)-1H-1,2,3-triazol-5-yl)carbamate]
Second: C[C@@H](OC(=O)Nc1c(-c2ccc3[nH]c(=O)ccc3c2)nnn1C)c1ccccc1Cl [Compound 15, (R)-1-(2-chlorophenyl)ethyl(1-methyl-4-(2-oxo-1,2-dihydroquinolin-6-yl)-1H-1,2,3-triazol-5-yl)carbamate]
The EC50 of the first is 2.1-fold lower: 265 nM for the first, 565 nM for the second.

`C[C@@H](OC(=O)Nc1c(-c2ccc3c(n2)OC(C(F)(F)F)C(=O)N3)nnn1C)c1cc(F)cnc1Cl` (stereo partly drawn) [Compound 30, (R)-1-(2-chloro-5-fluoropyridin-3-yl)ethyl (1-methyl-4-(2-oxo-3-(trifluoromethyl)-2,3-dihydro-1H-pyrido[2,3-b][1,4]oxazin-6-yl)-1H-1,2,3-triazol-5-yl)carbamate] and `CC1Oc2nc(-c3nnn(C)c3NC(=O)O[C@H](C)c3cc(F)cnc3Cl)ccc2NC1=O` (stereo partly drawn) [Compound 31, (R)-1-(2-chloro-5-fluoropyridin-3-yl)ethyl (1-methyl-4-(3-methyl-2-oxo-2,3-dihydro-1H-pyrido[2,3-b][1,4]oxazin-6-yl)-1H-1,2,3-triazol-5-yl)carbamate] cannot be ordered by EC50: less than 5 nM for the first, less than 5 nM for the second.

First: C[C@@H](OC(=O)Nc1c(-c2ccc3c(n2)OC(C)(C)C(=O)N3)nnn1C)c1cccnc1Cl [Compound 21, (R)-1-(2-chloropyridin-3-yl)ethyl (4-(3,3-dimethyl-2-oxo-2,3-dihydro-1H-pyrido[2,3-b][1,4]oxazin-6-yl)-1-methyl-1H-1,2,3-triazol-5-yl)carbamate]
Second: CCC1Oc2nc(-c3nnn(C)c3NC(=O)O[C@H](C)c3cccnc3Cl)ccc2NC1=O (stereo partly drawn) [Compound 26, (R)-1-(2-chloropyridin-3-yl)ethyl (4-(3-ethyl-2-oxo-2,3-dihydro-1H-pyrido[2,3-b][1,4]oxazin-6-yl)-1-methyl-1H-1,2,3-triazol-5-yl)carbamate]
The EC50 of the first is 1.7-fold lower: 2280 nM for the first, 3780 nM for the second. The first is the more potent here.

Compared with `C[C@@H](OC(=O)Nc1c(-c2ccc3c(c2F)CCC(=O)N3)nnn1C)c1cccnc1Cl` [Compound 7, (R)-1-(2-chloropyridin-3-yl)ethyl (4-(5-fluoro-2-oxo-1,2,3,4-tetrahydroquinolin-6-yl)-1-methyl-1H-1,2,3-triazol-5-yl)carbamate], `C[C@@H](OC(=O)Nc1c(-c2nc3c(cc2F)NC(=O)CO3)nnn1C)c1cccnc1Cl` [Compound 28, (R)-1-(2-chloropyridin-3-yl)ethyl (4-(7-fluoro-2-oxo-2,3-dihydro-1H-pyrido[2,3-b][1,4]oxazin-6-yl)-1-methyl-1H-1,2,3-triazol-5-yl)carbamate] is 1.9-fold lower in EC50: 1230 nM for the first, 660 nM for the second.

`C[C@@H](OC(=O)Nc1c(-c2ccc3c(n2)OC(c2ccccc2)C(=O)N3)nnn1C)c1cccnc1Cl` (stereo partly drawn) [Compound 27, (R)-1-(2-chloropyridin-3-yl)ethyl (1-methyl-4-(2-oxo-3-phenyl-2,3-dihydro-1H-pyrido[2,3-b][1,4]oxazin-6-yl)-1H-1,2,3-triazol-5-yl)carbamate] and `C[C@@H](OC(=O)Nc1c(-c2ccc3c(n2)COC(=O)N3)nnn1C)c1cccnc1Cl` [Compound 25, [(1R)-1-(2-chloro-3-pyridyl)ethyl] N-[3-methyl-5-(2-oxo-1,4-dihydropyrido[3,2-d][1,3]oxazin-6-yl)triazol-4-yl]carbamate] are within 1.5-fold of each other in EC50: 135 nM for the first, 140 nM for the second.

Compared with `C[C@@H](OC(=O)Nc1c(-c2ccc3c(c2)C(C)(C)OC(=O)N3)nnn1C)c1cccnc1F` [Compound 9, (R)-1-(2-fluoropyridin-3-yl)ethyl (4-(4,4-dimethyl-2-oxo-1,4-dihydro-2H-benzo[d][1,3]oxazin-6-yl)-1-methyl-1H-1,2,3-triazol-5-yl)carbamate], `C[C@@H](OC(=O)Nc1c(-c2ccc3c(c2)COC(=O)N3)nnn1C)c1cccnc1Cl` [Compound 16, (R)-1-(2-chloropyridin-3-yl)ethyl (1-methyl-4-(2-oxo-1,4-dihydro-2H-benzo[d][1,3]-oxazin-6-yl)-1H-1,2,3-triazol-5-yl)-carbamate] is 8.8-fold lower in EC50: 4610 nM for the first, 525 nM for the second. The second is the more potent here.

`Cn1nnc(-c2ccc3c(n2)OCC(=O)N3)c1NC(=O)O[C@H](CF)c1ccccc1` [Compound 5, (S)-2-fluoro-1-phenylethyl (1-methyl-4-(2-oxo-2,3-dihydro-1H-pyrido[2,3-b][1,4]-oxazin-6-yl)-1H-1,2,3-triazol-5-yl)-carbamate] and `C[C@@H](OC(=O)Nc1c(-c2ccc3c(c2)CCC(=O)N3)nnn1C)c1cc(F)cnc1Cl` [Compound 20, (R)-1-(2-chloro-5-fluoropyridin-3-yl)ethyl (1-methyl-4-(2-oxo-1,2,3,4-tetrahydroquinolin-6-yl)-1H-1,2,3-triazol-5-yl)carbamate] are within 1.5-fold of each other in EC50: 100 nM for the first, 118 nM for the second.
